From patent US12241021B2, “Method for fracking of simulation of hydrocarbon bearing formation” (Fluid Energy Group Ltd., priority 2018, dated 2025)

Assay: Corrosion testing of 316 steel coupons with acidic fluids
Conditions: for corrosion protection when used separately: alkyne alcohol or cinnamaldehyde alone in the inhibitor
Description: Corrosion inhibitor compositions according to preferred embodiments of the present invention were exposed to corrosion testing. Various steel grades (stainless steel and carbon steel) were subjected to acid compositions comprising corrosion inhibitors according to the present invention against known corrosion inhibitors to the listed compositions for various periods of time at varying temperatures. A desirable corrosion inhibition result was one where the lb/ft2 corrosion number is at or below 0.05. More preferably, that number is at or below 0.02.
33% HCl; MEA in a 5.5:1 ratio and 50% HCl; MEA in a 5.5:1 ratio indicate the volume amount of the original concentration of a stock solution containing HCl and Monoethanolamine in a ratio of 5.5:1. The HCl loading of a 33% HCl; MEA in a 5.5:1 ratio is approximately 6.5% HCl. The HCl loading of 50% HCl; MEA in a 5.5:1 ratio is approximately 10% HCl.

Row | SMILES | prevention of pitting (higher temperatures (even 110° C. to 120° C.)) | corrosion protection when used separately | film forming, protection of stainless steel (at these temperatures (90° C. to 120° C.))
1 | CC(C)=CCCC(C)=CC=O (racemic) [Citral, (±)-3,7-Dimethyl-2,6-octadienal] | some effectiveness for the prevention of pitting |  | 
2 | O=CC=Cc1ccccc1 [cinnamaldehyde] |  | did not provide corrosion protection sufficient | effective film former
3 | C#CCO [propargyl alcohol] |  | did not provide corrosion protection sufficient | 
